Results on one molecule are retold here after patent publication US7776856B2, “Pharmaceutical compounds” (F. Hoffman-La Roche AG, priority 2004, dated 2010).

This data set relates to Caco-2 cells. Nature of the data set: Caco-2 permeability. The data set is classed as in vitro ADME. The conditions noted are these: Caco-2 bidirectional assay. As for the experimental part: (iii) Caco-2 Permeability
Caco-2 cells were seeded onto Millipore Multiscreen plates at 1×10^5 cells/cm^2, and were cultured for 20 days. Assessment of compound permeability was subsequently conducted. The compounds were applied to the apical surface (A) of cell monolayers and compound permeation into the basolateral (B) compartment was measured. This was performed in the reverse direction (B-A) to investigate active transport. A permeability coefficient value, Papp, for each compound, a measure of the rate of permeation of the compound across the membrane, was calculated. Compounds were grouped into low Papp</=1.0×10^6 cm/s) or high Papp>/=1.0×10^6cm/s) absorption potential based on comparison with control compounds with established human absorption.
For assessment of a compound's ability to undergo active efflux, the ratio of basolateral (B) to apical (A) transport compared with A to B was determined. Values of B−A/A−B>/=1.0 indicated the occurrence of active cellular efflux. All of the compounds tested through the Caco-2 permeability screen had Papp values >/=[…].

For `CN1CCN(Cc2cc3nc(-c4cccc(O)c4)nc(N4CCOCC4)c3s2)CC1` [PI540], the “B−A/A−B asymmetry index” value is listed as “less than 1.0”.
